IC50 data for 34 molecules are collected here from US11396517B1, “Exo-aza spiro inhibitors of menin-MLL interaction” (Janssen Pharmaceutica NV, priority 2017, dated 2022).

One test addresses T1, menin (Homo sapiens, UniProt O00255, T541A).
T1 construct: Menin (a.a. 1-610-6×his tag)
T1 sequence (O00255 with tags, fused parts or gaps T541A): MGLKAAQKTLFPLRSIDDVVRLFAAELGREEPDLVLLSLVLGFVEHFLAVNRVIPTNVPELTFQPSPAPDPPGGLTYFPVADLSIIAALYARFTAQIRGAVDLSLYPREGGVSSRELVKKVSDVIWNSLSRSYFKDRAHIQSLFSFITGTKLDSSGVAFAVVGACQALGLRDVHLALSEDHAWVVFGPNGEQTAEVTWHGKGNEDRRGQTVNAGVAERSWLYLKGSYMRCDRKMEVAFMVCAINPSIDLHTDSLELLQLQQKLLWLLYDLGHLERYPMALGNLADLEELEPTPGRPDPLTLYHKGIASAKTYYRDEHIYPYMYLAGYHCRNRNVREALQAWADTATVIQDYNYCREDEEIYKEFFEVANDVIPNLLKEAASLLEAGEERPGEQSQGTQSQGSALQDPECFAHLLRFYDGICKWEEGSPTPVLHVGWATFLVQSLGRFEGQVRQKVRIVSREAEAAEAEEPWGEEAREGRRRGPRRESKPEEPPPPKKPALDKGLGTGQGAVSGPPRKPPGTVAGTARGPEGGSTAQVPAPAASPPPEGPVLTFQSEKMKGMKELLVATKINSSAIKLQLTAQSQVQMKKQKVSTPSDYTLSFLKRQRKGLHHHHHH
In words: Menin/MLL homogenous time-resolved fluorescence (HTRF) assay. The format is binding. To be noted: location 2; read-out: (2) location 2 Menin HTRF assay (IC50 (nM)). Put shortly: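 Displacement of 75 nM FITC-MBM1 from terbium-cryptate-labeled His-tagged menin 1-610 ([…]) was read as the 520/490 nm HTRF ratio. Compound (11-point, 3-fold series) got 5 min with menin before peptide, then 15 min at ambient; 0.5% DMSO, Tris pH 7.5.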
(Time-resolved FRET reads energy transfer from a long-lived donor to a nearby acceptor.)

Another test concerns MOLM14. In words: Proliferation assay B (spheroid assay) MOLM14. The format is cell-based, human. To be noted: MOLM14 cells, confluence at day 8, absolute IC50, read-out: (3b) Spheroid assay MOLM14 (IC50(μM)) Assay B. On the procedure:
3b) Proliferation Assay B
The anti-proliferative effect of menin/MLL protein/protein interaction inhibitor test compounds was assessed in human leukemia cell lines. The cell lines MV-4-11 and MOLM14 harbor MILL translocations and express the MILL fusion proteins MLL-AF4 and MLL-AF9, respectively, as well as the wildtype protein from the second allele. […] K562 was used as a control cell line containing two MLL wildtype alleles in order to exclude compounds that display general cytotoxic effects.
MV-4-11 and MOLM14 were cultured in RPMI-1640 (Sigma Aldrich) supplemented with 10% fetal bovine serum (HyClone), 2 mM L-glutamine (Sigma Aldrich) and 50 μg/ml gentamycin (Gibco). K562 were propagated in RPMI-1640 (Sigma Aldrich) supplemented with 20% fetal bovine serum (HyClone), 2 mM L-glutamine (Sigma Aldrich) and 50 μg/ml gentamycin (Gibco).
In order to assess the anti-proliferative effects, 1,500 MV-4-11, 300 MOLM14 cells or 750 K562 cells were seeded in 200 μl media per well in 96-well round bottom, ultra-low attachment plates (Costar, catalogue number 7007). Cell seeding numbers were chosen based on growth curves to ensure linear growth throughout the experiment. Test compounds were added at different concentrations and the DMSO content was normalized to 0.3%. Cells were incubated for 8 d at 37° C. and 5% CO2. Spheroid like growth was measured in real-time by live-cell imaging (IncuCyteZOOM, Essenbio, 4× objective) acquiring images at day 8. Confluence (%) as a measure of spheroid size was determined using an integrated analysis tool.
In order to determine the effect of the test compounds over time, the confluence in each well as a measure of spheroid size, was calculated. Confluence […] at the beginning of the experiment (t=0) was used as baseline for the calculation.
Absolute IC50 values were calculated as percent change in confluence as follows:
LC=Low Control: cells treated with 1 μM of the cytotoxic agent staurosporin
HC=High Control: Mean confluence (%) (DMSO treated cells) % Effect=100−(100*(Sample−LC)/(HC−LC))
To determine the IC50 a curve is fitted to the plot of % Effect vs Log 10 compound concentration using a sigmoidal fit with a variable slope and fixing the maximum to 100% and the minimum to 0%.

Like-named read-outs stand apart in the source and are kept apart here. Where only a bound is given, the exact number is not on record here.

As a reminder, the IC50 is the concentration needed to halve the response being measured.

As to `N#Cc1ccc(NC2CC3(CCN(c4ncnc5sc(CC(F)(F)F)cc45)C3)C2)cn1` (mixture of isomers) [Compound 176], the IC50 on menin amounted to 18.7 nM; in the test on MOLM14 (Homo sapiens, MOLM-14, 192 h) it was 1.55 µM.
In the same order, the values of `CN(C)CCN(C)C(=O)c1ccc(NC2CC3(CCN(c4ncnc5sc(CC(F)(F)F)cc45)C3)C2)cc1` (mixture of isomers) [Compound 180] are 43.4 nM and greater than 3.75 µM.
As for `CC(NC(=O)c1ccc(NC2CC3(CCN(c4ncnc5sc(CC(F)(F)F)cc45)C3)C2)cc1)C1CCN(S(C)(=O)=O)CC1` (mixture of isomers) [Compound 191], the IC50 at menin came out at 7.9 nM; in the test with MOLM14 (Homo sapiens, MOLM-14, 192 h), 1.22 µM.
In the case of `CC(CN1CCN(S(C)(=O)=O)CC1)NC(=O)c1ccc(NC2CC3(CCN(c4ncnc5sc(CC(F)(F)F)cc45)C3)C2)cc1` (mixture of isomers) [Compound 192], the IC50 came to 13.1 nM on menin and 1 µM in the test on MOLM14 (Homo sapiens, MOLM-14, 192 h).
Consider `CC(CN(C)C)NC(=O)c1ccc(NC2CC3(CCN(c4ncnc5sc(CC(F)(F)F)cc45)C3)C2)cc1` (mixture of isomers) [Compound 193], for which the IC50 worked out at 4.2 nM at menin and 0.46 µM with MOLM14 (Homo sapiens, MOLM-14, 192 h).
`O=c1[nH]c2ccc(NCC3CC4(CCN(c5ncnc6sc(CC(F)(F)F)cc56)C4)C3)cc2[nH]1` (mixture of isomers) [Compound 198]: the IC50 on menin was 141 nM; in the test on MOLM14 (Homo sapiens, MOLM-14, 192 h), greater than 3.75 µM.
For `CNC(=O)c1ccc(NC2CC3(CCN(c4ncnc5sc(CC(F)(F)F)cc45)C3)C2)cc1Cl` (mixture of isomers) [Compound 214], in that order: 9.4 nM and greater than 3.75 µM.
As to `CS(=O)(=O)N1CCN(CCn2c(=O)[nH]c3ccc(NC4CC5(CCN(c6ncnc7sc(CC(F)(F)F)cc67)C5)C4)cc32)CC1` (mixture of isomers) [Compound 221], the IC50 is 4000 nM on menin and greater than 3.75 µM in the test on MOLM14 (Homo sapiens, MOLM-14, 192 h).
For `CS(=O)(=O)N1CCN(CCn2c(=O)[nH]c3cc(NC4CC5(CCN(c6ncnc7sc(CC(F)(F)F)cc67)C5)C4)ccc32)CC1` (mixture of isomers) [Compound 222], the half-inhibitory concentration (IC50) is 418 nM at menin and greater than 3.75 µM in the test on MOLM14 (Homo sapiens, MOLM-14, 192 h).
In the case of `CNC(=O)c1ccc(NC2CC3(CCN(c4ncnc5sc(CC(F)(F)F)cc45)C3)C2)cc1CCCN(C)C` (mixture of isomers) [Compound 236], the IC50 on menin was 80 nM; in the test with MOLM14 (Homo sapiens, MOLM-14, 192 h), greater than 3.75 µM.
With `CN1CCC(COc2cc(NC3CC4(CCN(c5ncnc6sc(CC(F)(F)F)cc56)C4)C3)ccc2C#N)CC1` (mixture of isomers) [Compound 241], the IC50 at menin stood at 114 nM; in the test with MOLM14 (Homo sapiens, MOLM-14, 192 h), 2.64 µM.
Consider `CNc1nc(N2CCC3(CC(Nc4ccc5c(c4)oc(=O)n5CCN4CCN(S(C)(=O)=O)CC4)C3)C2)c2cc(CC(F)(F)F)sc2n1` (mixture of isomers) [Compound 250], for which the IC50 at menin is 146 nM; with MOLM14 (Homo sapiens, MOLM-14, 192 h) it was greater than 3.75 µM.
Regarding `CNC(=O)c1cnc(NC2CC3(CCN(c4ncnc5sc(CC(F)(F)F)cc45)C3)C2)nc1` (mixture of isomers) [Compound 257], the IC50 is 10.6 nM at menin and greater than 3.75 µM in the test on MOLM14 (Homo sapiens, MOLM-14, 192 h).
Consider `CNC(=O)c1ccc(NC2CC3(CCN(c4ncnc5sc(CC(F)(F)F)cc45)C3)C2)cc1` (mixture of isomers) [Compound 329], for which the IC50 on menin was 2 nM; with MOLM14 it was 2.54 µM.
Take `CS(=O)(=O)N1CCC(C#N)(c2ccc(NC3CC4(CCN(c5ncnc6sc(CC(F)(F)F)cc56)C4)C3)cc2)CC1` (mixture of isomers) [Compound 340]: the IC50 came out at 7.1 nM on menin and 2.47 µM in the test on MOLM14 (Homo sapiens, MOLM-14, 192 h).
Turning to `CS(=O)(=O)c1ccc(NC2CC3(CCN(c4ncnc5sc(CC(F)(F)F)cc45)C3)C2)cc1` (mixture of isomers) [Compound 342], the IC50 on menin was 4.8 nM; with MOLM14 (Homo sapiens, MOLM-14, 192 h) it was greater than 3.75 µM.
Consider `CS(=O)(=O)Nc1ccc(NC2CC3(CCN(c4ncnc5sc(CC(F)(F)F)cc45)C3)C2)cc1` (mixture of isomers) [Compound 343], for which the concentration for half-maximal inhibition (IC50) was 4.9 nM on menin and greater than 3.75 µM in the test with MOLM14 (Homo sapiens, MOLM-14, 192 h).
In the case of `CS(=O)(=O)Cc1ccc(NC2CC3(CCN(c4ncnc5sc(CC(F)(F)F)cc45)C3)C2)cc1` (mixture of isomers) [Compound 344], the IC50 at menin is 13.4 nM; in the test with MOLM14 (Homo sapiens, MOLM-14, 192 h), greater than 3.75 µM.
`O=C1OCCN1c1ccc(NC2CC3(CCN(c4ncnc5sc(CC(F)(F)F)cc45)C3)C2)cc1` (mixture of isomers) [Compound 345]: the IC50 is 6.8 nM at menin and 2.33 µM in the test with MOLM14 (Homo sapiens, MOLM-14, 192 h).
In the case of `O=C1NCCN1c1ccc(NC2CC3(CCN(c4ncnc5sc(CC(F)(F)F)cc45)C3)C2)cc1` (mixture of isomers) [Compound 346], the IC50 at menin worked out at 7.3 nM; in the test with MOLM14 (Homo sapiens, MOLM-14, 192 h), 2.11 µM.
Turning to `O=C1OCCN1Cc1ccc(NC2CC3(CCN(c4ncnc5sc(CC(F)(F)F)cc45)C3)C2)cc1` (mixture of isomers) [Compound 347], the IC50 worked out at 9.1 nM on menin and 3.18 µM in the test with MOLM14 (Homo sapiens, MOLM-14, 192 h).
In the same order, the values of `NC(=O)Cc1ccc(NC2CC3(CCN(c4ncnc5sc(CC(F)(F)F)cc45)C3)C2)cc1` (mixture of isomers) [Compound 348] are 14.5 nM and greater than 3.75 µM.
For `CS(=O)(=O)N1CCN(CCn2c(=O)oc3ccc(CNC4CC5(CCN(c6ncnc7sc(CC(F)(F)F)cc67)C5)C4)cc32)CC1` (mixture of isomers) [Compound 349], the IC50 was 19.3 nM at menin and greater than 3.75 µM with MOLM14 (Homo sapiens, MOLM-14, 192 h).
For `FC(F)(F)Cc1cc2c(N3CCC4(CC(Nc5ccc(CN6CCOCC6)cc5)C4)C3)ncnc2s1` (mixture of isomers) [Compound 350], in that order: 21.1 nM and 3.55 µM.
As for `N#Cc1ccc(NC2CC3(CCN(c4ncnc5sc(CC(F)(F)F)cc45)C3)C2)nc1` (single isomer, unassigned) [Compound 174], the IC50 with MOLM14 is 2.94 µM.
For `N#Cc1cccc(NC2CCC3(CCN(c4ncnc5sc(CC(F)(F)F)cc45)C3)C2)c1` (stereo not shown) [Compound 132], on menin, the IC50 is 180 nM.
As for `CC(C)(C#N)c1ccc(NC2CC3(CCN(c4ncnc5sc(CC(F)(F)F)cc45)C3)C2)cc1` (stereo not shown) [Compound 169], the IC50 at menin was 425 nM.
As for `N#CCc1cccc(NC2CC3(CCN(c4ncnc5sc(CC(F)(F)F)cc45)C3)C2)c1` (stereo not shown) [Compound 201], the IC50 at menin is 175 nM.
As for `Cc1nc(N2CCC3(CC(Nc4ccccc4)C3)C2)c2cc(CC(F)(F)F)sc2n1` (stereo not shown) [Compound 264], the IC50 at menin amounted to 913 nM.
Turning to `O=c1ccc(NC2CCC3(C2)CN(c2ncnc4sc(CC(F)(F)F)cc24)C3)c[nH]1` (stereo not shown) [Compound 283], the IC50 on menin stood at 2160 nM.
As for `FC(F)(F)Cc1cc2c(N3CC4(CCC(Nc5ccc6cc[nH]c6c5)C4)C3)ncnc2s1` (stereo not shown) [Compound 284], the half-inhibitory concentration (IC50) at menin was determined as 423 nM.
With `CNc1nc(N2CC3(CCC(Nc4ccc(CC#N)cc4)C3)C2)c2cc(CC(F)(F)F)sc2n1` (stereo not shown) [Compound 400], the IC50 at menin came to 373 nM.
As to `CNc1nc(N2CC3(CCC(Nc4ccc5oc(=O)[nH]c5c4)C3)C2)c2cc(CC(F)(F)F)sc2n1` (stereo not shown) [Compound 401], the half-maximal inhibitory concentration (IC50) on menin came out at 331 nM.
As for `CNc1nc(N2CC3(CCC(Nc4ccc5[nH]c(=O)[nH]c5c4)C3)C2)c2cc(CC(F)(F)F)sc2n1` (stereo not shown) [Compound 402], on menin, the 50% inhibitory concentration (IC50) was found to be 906 nM.
